Source: PMC6315506 (Viruses, 2018)

Legend:
Conditions in all cases: 10 µM
HIV-1/H5N1 pseudovirus = experiment: organism not typed; type: cell-based, influenza A virus A/Goose/Qinghai/59/05 (H5N1)
HIV-1/LASV pseudovirus = experiment: microbe, parasite or virus in culture; type: cell-based
HIV-1/EBOV pseudovirus = tested on: HIV-1/EBOV pseudovirus
A549 cells = tested on: A549 cells

SMILES | Inhibition HIV/H5N1 (HIV-1/H5N1 pseudovirus) | Inhibition HIV/LASV (HIV-1/LASV pseudovirus) | Inhibition HIV/EBOV (HIV-1/EBOV pseudovirus) | Cell Viability (A549 cells)
COc1ccccc1COc1nc2ccc(Br)cc2cc1-c1ccc(CN(C)C)cc1 [SYL1705] | 59.98% | 88.92% | 99.76% | 86.34%
Brc1ccc2nc(OCc3cccc4ccccc34)c(-c3ccc(CN4CCOCC4)cc3)cc2c1 [SYL1708] | 18.60% | 82.96% | 98.58% | 80.29%
CN1CCN(c2ccc(-c3cc4cc(Br)ccc4nc3OCc3cccc4ccccc34)cc2)CC1 [SYL1669] | 96.42% | 92.49% | 99.94% | 82.47%
CN(C)Cc1ccc(-c2cc3cc(Br)ccc3nc2OCc2cccc(F)c2)cc1 [SYL1715] | 95.43% | 76.84% | 99.61% | 84.72%
COc1nc2ccc(Br)cc2cc1C(c1ccccc1)N1CCN(C)c2ccccc21 (centres unmarked) [SYL1628] | -5.51% | 86.50% | 99.91% | 86.44%
COc1nc2ccccc2cc1C(c1ccccc1)n1c(=O)n(CCN(C)C)c2ccccc21 (centres unmarked) [SYL1624] | 53.54% | 85.88% | 99.82% | 86.63%
CN(C)Cc1ccc(-c2cc3cc(Br)ccc3nc2OCc2cccc3ccccc23)cc1 [SYL1665] | 84.24% | 88.72% | 99.92% | 82.87%
CN(C)Cc1cccc(-c2cc3cc(Br)ccc3nc2Oc2ccncc2)c1 [SYL1648] | 37.82% | 89.27% | 99.91% | 84.21%
CN(C)Cc1cccc(-c2cc3ccccc3nc2Oc2cccc3ccccc23)c1 [SYL1637] | 97.92% | 81.65% | 99.81% | 80.11%
CN(C)Cc1ccc(-c2cc3cc(Br)ccc3nc2OCc2cccc3ccccc23)c(F)c1 [SYL1682] | 78.74% | 94.69% | 99.91% | 84.09%
Brc1ccc2nc(OCc3cccc4ccccc34)c(-c3ccc(Cn4ccnc4)cc3)cc2c1 [SYL1691] | 97.25% | 57.43% | 92.17% | 72.14%
CNCCc1ccc(-c2cc3cc(Br)ccc3nc2OCc2cccc3ccccc23)cc1 [SYL1672] | 98.01% | 99.22% | 99.85% | 2.06%
CN(C)Cc1ccc(-c2cc3cc(Br)ccc3nc2SCc2ccccc2)cc1 [SYL1699] | 94.56% | 93.73% | 99.94% | 105.32%
COc1nc2ccc(Br)cc2cc1C(Nc1ccccc1OCCN(C)C)c1ccccc1 (centres unmarked) [SYL1622] | 96.99% | 83.38% | 99.12% | 77.49%
CN(C)Cc1cccc(-c2cc3cc(Br)ccc3nc2OCc2cccc(F)c2)c1 [SYL1666] | 87.06% | 91.03% | 99.92% | 81.28%
CN(C)C(=O)c1cccc(-c2cc3ccccc3nc2Oc2cccc3ccccc23)c1 [SYL1646] | -23.29% | 82.50% | 99.92% | 83.55%
CN(C)CCc1cccc(-c2cc3cc(Br)ccc3nc2OCc2cccc3ccccc23)c1 [SYL1643] | 72.74% | 83.87% | 99.82% | 85.39%
COc1nc2ccc(Br)cc2cc1C(c1ccccc1)N(CCN(C)C)c1cccc2ccccc12 (centres unmarked) [SYL1623] | 105.28% | 15.39% | 97.68% | 87.19%
CN(C)Cc1cccc(-c2cc3cc(Br)ccc3nc2Sc2cccc(O)c2)c1 [SYL1639] | 97.65% | 98.93% | 99.85% | 2.71%
CN(C)Cc1cccc(-c2cc3cc(Br)ccc3nc2Nc2cccc3ccccc23)c1 [SYL1656] | 49.96% | 51.43% | 79.70% | 77.79%
